The results in this text go back to patent US20240189278A1, “NOVEL COMPOUNDS AND METHODS FOR INCREASING KLOTHO GENE EXPRESSION” (Klotho Therapeutics, Inc., priority 2017, published 2024).

SMILES strings stand for the structures. Some results are limits rather than exact numbers.

One assay deals with Klotho gene expression. Nature of the assay: Luciferase reporter assay to evaluate Klotho gene expression changes. The class given is cell-based. The settings on record: overnight incubation, luciferase luminescence. The protocol:
Table 2. Luciferase Reporter Assay to Evaluate Klotho Gene Expression Changes
HEK293 cells/pKlotho_Luc in suspension (20 μl/well, density 0.25×10^6 cells/ml) were dispensed into assay-ready 384-well tissue culture treated plates (plates (BD BioCoat Poly-D-Lys coated, Cat.354661) preloaded with 1000× stock of test compounds in DMSO (20 nL/well, 10 concentration points, 3× dilutions from 20 uM to 0.001 uM). Growth medium: DMEM, 1% FBS, Pen/Strep, 600 ug/ml G418. Negative control: DMSO. Positive control: 2 uM Compound H from King, et. al. Biochem. J. (2012) 441, 453-461. Cells were incubated in CO2 incubator overnight. At the end of the incubation time, 20 ul/well of the luciferase assay solution (Steady-Luc Firefly HTS Assay Biotium, Cat 30028) were added to the plate and mixed on a VibraTranslator (Union Scientific). Plates were incubated for 5 min at 25° C. Steady glow luminescence signal was read using a BMG Labtech PHERAstar FSX reader.
(In general: Reporter assays use an easily measured gene product as a stand-in for the process of interest.)

The test system of the next assay is aged male Wistar rats. The assay is described as follows: Aged rat efficacy model, blood pressure by tail-cuff method. The class given is in vivo. The protocol: The aim of the study was to assess the efficacy of test compound in improving physiologic parameters in aged rats such as blood pressure values. The experiment included daily repeated administrations of the test compound for 14 consecutive days and follow up observations within a […] post-dosing period. Body weight (BWt) were monitored daily during the dosing period and twice a week during the post-dosing period. Blood pressure (BP) was measured on 0, 7th, 14th, 21s t and 28th day of the study. Study design, animal selection, handling and treatment were all in accordance with the CROs efficacy study protocols and Standard Operation Procedure, and the Animal Care Guidelines.
Fifteen aged male Wistar rats (22.5 months old; initial body weights ranged from 474.8 g to 672.4 g with an average body weight across the groups of 540.8 g) were randomized into two groups by body weight and systolic blood pressure: 11 animals distributed to compound 49-treated group and 4 animals—to vehicle-treated group. […]
Blood pressure was measured by the Tail-Cuff Method using the Coda Non-invasive Blood-Pressure System. Individual body weights and relative changes in body weight (compared to the appropriate weight on Day 0) were recorded.

Setting [1] is: Homo sapiens, HEK293, HEK293 cells/pKlotho_Luc.

For `C1=CCC(CNc2ncnc3c2ncn3C2CC2)CC1` (stereo not drawn) [Compound 1, N-[(cyclohex-3-en-1-yl)methyl]-9-cyclopropyl-9H-purin-6-amine], in the assay with Klotho gene expression (HEK293 cells/pKlotho_Luc), the “Activation, %” value is 149%. In addition, the concentration giving a half-maximal response (EC50) (usually the concentration that produces a half-maximal response) with Klotho gene expression (setting [1]) stood at 60 nM.
As for `C1=C(CCNc2ncnc3[nH]ccc23)CCCCC1` [Compound 2, N-[2-(cyclohept-1-en-1-yl)ethyl]-7H-pyrrolo[2,3-d]pyrimidin-4-amine], the “Activation, %” value with Klotho gene expression (HEK293 cells/pKlotho_Luc) came to 94%. Also, the response with Klotho gene expression (setting [1]) was half-maximal at 70 nM (EC50).
As to `C1=C(CCNc2cc(N3CCCC3)ncn2)CCCC1` [Compound 3], the “Activation, %” value in the assay on Klotho gene expression (HEK293 cells/pKlotho_Luc) was found to be 138%. Moreover, in the assay on Klotho gene expression (setting [1]), the EC50 came to 100 nM.
For `Fc1ccccc1-n1ncc2c(NCCC3=CCCCC3)ncnc21` [Compound 4], the “Activation, %” value with Klotho gene expression (HEK293 cells/pKlotho_Luc) turned out to be 105%. In the assay on Klotho gene expression (setting [1]), this compound had a concentration giving a half-maximal response (EC50) of 120 nM.
The matching figures for `Fc1ccccc1-n1ncc2c(NCCC3=CCCCCC3)ncnc21` [Compound 5]: 61% and 120 nM.
`C1=C(CCNc2cc(N3CCCCC3)ncn2)CCCC1` [Compound 6]: in the assay on Klotho gene expression (HEK293 cells/pKlotho_Luc), the “Activation, %” value stood at 98%. In the assay on Klotho gene expression (setting [1]), this compound displayed a half-maximal effective concentration (EC50) of 140 nM.
The like results for `C1=C(CCNc2ncnc3[nH]ccc23)CCCC1` [Compound 7] were, in that order, 150% and 160 nM.
Regarding `Cc1csc2ncnc(NCCC3=CCCCC3)c12` [Compound 8], the “Activation, %” value in the assay with Klotho gene expression (HEK293 cells/pKlotho_Luc) is 145%. In addition, the 50% effective concentration (EC50) in the assay with Klotho gene expression (setting [1]) was determined as 160 nM.
The matching figures for `C1=C(CCNc2ncnc3sccc23)CCCCC1` [Compound 9]: 81% and 180 nM.
As for `Nc1c(NCCC2=CCCCCC2)ncnc1-n1cccn1` [Compound 10], the “Activation, %” value in the assay with Klotho gene expression (HEK293 cells/pKlotho_Luc) came out at 98%. Further, in the assay on Klotho gene expression (setting [1]), the midpoint of the response, the EC50, lay at 200 nM.
The matching figures for `Nc1c(NCCC2=CCCCC2)ncnc1-n1cccn1` [Compound 11]: 125% and 210 nM.
Consider `Cc1csc2ncnc(NCCC3=CCCCCC3)c12` [Compound 12], for which the “Activation, %” value in the assay with Klotho gene expression (HEK293 cells/pKlotho_Luc) turned out to be 98%. Further, it took 210 nM to reach a half-maximal effect in the assay on Klotho gene expression (setting [1]) (EC50).
Regarding `Fc1cccc2ncnc(NCCC3=CCCCC3)c12` [Compound 13], the “Activation, %” value in the assay with Klotho gene expression (HEK293 cells/pKlotho_Luc) is 86%. This compound showed an EC50 in the assay with Klotho gene expression (setting [1]) of 250 nM.
For the compound `N#CCCn1ncc2c(NCCC3=CCCCCC3)ncnc21` [Compound 14], the “Activation, %” value with Klotho gene expression (HEK293 cells/pKlotho_Luc) was 122%. In the assay with Klotho gene expression (setting [1]), this compound gave a 50% effective concentration (EC50) of 260 nM.
The matching figures for `C1=C(CCNc2ncnc3c2cnn3-c2ccccc2)CCCC1` [Compound 15]: 203% and 270 nM.
Take `CCn1ncc2c(NCCC3=CCCCC3)ncnc21` [Compound 16]: the “Activation, %” value in the assay with Klotho gene expression (HEK293 cells/pKlotho_Luc) was 151%. The EC50 in the assay with Klotho gene expression (setting [1]) amounted to 370 nM.
Take `CN(CCC1CCCCC1)c1ncnc2c1ncn2C1CC1` [Compound 17]: the “Activation, %” value with Klotho gene expression (HEK293 cells/pKlotho_Luc) is reported as 114%. The compound further registered an EC50 in the assay on Klotho gene expression (setting [1]) of 380 nM.
The like results for `Cc1cc2c(NCCC3=CCCCCC3)ncnc2s1` [Compound 18] were, in that order, 48% and 450 nM.
Regarding `C1=CCC(CCNc2ncnc3c2ncn3C2CC2)CC1` (stereo not drawn) [Compound 19], the “Activation, %” value in the assay on Klotho gene expression (HEK293 cells/pKlotho_Luc) is on record as 152%. In addition, the response with Klotho gene expression (setting [1]) was half-maximal at 500 nM (EC50).
For `N#CCCn1ncc2c(NCCC3=CCCCC3)ncnc21` [Compound 20], the “Activation, %” value with Klotho gene expression (HEK293 cells/pKlotho_Luc) came to 120%. The midpoint of the response with Klotho gene expression (setting [1]), the EC50, lay at 600 nM.
The like results for `Cc1cc2c(NCCC3=CCCCC3)ncnc2s1` [Compound 21] were, in that order, 133% and 680 nM.
Turning to `C1=C(CCNc2ncnc3c2cnn3-c2ccccc2)CCCCC1` [Compound 22], the “Activation, %” value in the assay with Klotho gene expression (HEK293 cells/pKlotho_Luc) turned out to be 96%. In addition, a half-maximal effect in the assay with Klotho gene expression (setting [1]) (EC50) was put at 770 nM.
The like results for `C1=C(CCNc2ncnc3sccc23)CCCC1` [Compound 23] were, in that order, 133% and 850 nM.
The like results for `C1=C(CCNc2ncnc3ccsc23)CCCCC1` [Compound 24] were, in that order, 122% and 880 nM.
The like results for `CCn1ncc2c(NCCC3CC=CCC3)ncnc21` (stereo not drawn) [Compound 26] were, in that order, 121% and 920 nM.
`C1=C(CCNc2ncnc3scnc23)CCCCC1` [Compound 27]: the “Activation, %” value in the assay on Klotho gene expression (HEK293 cells/pKlotho_Luc) was determined as 101%. This compound also registered a concentration giving a half-maximal response (EC50) in the assay with Klotho gene expression (setting [1]) of 920 nM.
The like results for `CCC1(CC)CCCN(c2ncnc3c2ncn3C2CC2)CC1` [Compound 28] were, in that order, 101% and 1000 nM.
The matching figures for `C1=C(CCNc2ncnc3scnc23)CCCC1` [Compound 29]: 103% and 1100 nM.
In the case of `c1nc(NCCC2CCCC2)c2ncn(C3CC3)c2n1` [Compound 30], the “Activation, %” value with Klotho gene expression (HEK293 cells/pKlotho_Luc) turned out to be 87%. This compound yielded an EC50 in the assay on Klotho gene expression (setting [1]) of 1200 nM.
For the compound `c1nc(NCCC2CCCCC2)c2ncn(C3CC3)c2n1` [Compound 31], the “Activation, %” value in the assay on Klotho gene expression (HEK293 cells/pKlotho_Luc) is recorded as 109%. In addition, in the assay with Klotho gene expression (setting [1]), the EC50 worked out at 1100 nM.
The like results for `CC(C)CCNc1ncnc2c1ncn2C1CC1` [Compound 32] were, in that order, 77% and 730 nM.
The like results for `c1nc(NCC2CCCCC2)c2ncn(C3CC3)c2n1` [Compound 33] were, in that order, 89% and 380 nM.
The like results for `Clc1cccc(CNc2ncnc3c2ncn3C2CC2)c1` [Compound 34] were, in that order, 102% and 2000 nM.
Turning to `CC(C)CNc1ncnc2c1ncn2C1CC1` [Compound 35], the “Activation, %” value with Klotho gene expression (HEK293 cells/pKlotho_Luc) came out at 40%. Further, the concentration for a half-maximal effect (EC50) in the assay with Klotho gene expression (setting [1]) came to 1500 nM.
The like results for `c1nc(NCC2CCC2)c2ncn(C3CC3)c2n1` [Compound 36] were, in that order, 68% and 830 nM.
Turning to `C1=C(CCNc2ncnc3c2ncn3C2CC2)CCCC1` [Compound 37], the “Activation, %” value in the assay on Klotho gene expression (HEK293 cells/pKlotho_Luc) is 103%. The EC50 with Klotho gene expression (setting [1]) is 70 nM.
As for `C1=C(CCNc2ncnc3c2ncn3C2CC2)CCCCC1` [Compound 38], the “Activation, %” value with Klotho gene expression (HEK293 cells/pKlotho_Luc) came out at 105%. In the assay on Klotho gene expression (setting [1]), this compound returned a half-maximal effective concentration (EC50) of 340 nM.
The like results for `CC1(CNc2ncnc3c2ncn3C2CC2)CCCCC1` [Compound 39] were, in that order, 77% and 3600 nM.
For `CC1(CNc2ncnc3c2ncn3C2CC2)CCCC1` [Compound 40], the “Activation, %” value with Klotho gene expression (HEK293 cells/pKlotho_Luc) was found to be 89%. The EC50 with Klotho gene expression (setting [1]) was determined as 2900 nM.
`c1ccc([C@@H]2C[C@H]2Nc2ncnc3c2ncn3C2CC2)cc1` [Compound 41] came in with a half-maximal effective concentration (EC50) with Klotho gene expression (setting [1]) above 30000 nM.
In the case of `C1=C(CCNc2ncnc3c2ncn3C2CC2)CCC1` [Compound 42], the “Activation, %” value in the assay on Klotho gene expression (HEK293 cells/pKlotho_Luc) worked out at 79%. The compound also registered an EC50 with Klotho gene expression (setting [1]) of 620 nM.
`Clc1ccc(CNc2ncnc3c2ncn3C2CC2)cc1Cl` [Compound 43]: in the assay on Klotho gene expression (setting [1]), the EC50 is above 30000 nM.
In the case of `CC(C)(CNc1ncnc2c1ncn2C1CC1)C1=CCCCC1` [Compound 44], the “Activation, %” value with Klotho gene expression (HEK293 cells/pKlotho_Luc) is 58%. Also, the midpoint of the response in the assay on Klotho gene expression (setting [1]), the EC50, lay at 23800 nM.
As for `CC1(C)CCC(CNc2ncnc3c2ncn3C2CC2)CC1` [Compound 45], in the assay on Klotho gene expression (HEK293 cells/pKlotho_Luc), the “Activation, %” value is recorded as 59%. The same compound returned an EC50 with Klotho gene expression (setting [1]) of 13100 nM.
Consider `c1nc(NCC23CCC(CC2)CC3)c2ncn(C3CC3)c2n1` [Compound 46], for which, in the assay on Klotho gene expression (HEK293 cells/pKlotho_Luc), the “Activation, %” value is 86%. Also, the EC50 with Klotho gene expression (setting [1]) is 1700 nM.
On to `FC1(CNc2ncnc3c2ncn3C2CC2)CCCCC1` [Compound 47], for which the “Activation, %” value in the assay on Klotho gene expression (HEK293 cells/pKlotho_Luc) is reported as 86%. The same compound yielded an EC50 in the assay on Klotho gene expression (setting [1]) of 900 nM.
The matching figures for `C1=CC[C@@H](CNc2ncnc3c2ncn3C2CC2)CC1` [Compound 48]: 86% and 160 nM.
In the case of `C1=CC[C@@H](CNc2ncnc3c2ncn3C2CC2)CC1` [Compound 49], in the assay on Klotho gene expression (HEK293 cells/pKlotho_Luc), the “Activation, %” value was 90% and the concentration giving a half-maximal response (EC50) is 100 nM. Moreover, the “Systolic blood pressure within the treated group during the study” value in the assay with aged male Wistar rats (50 mg/kg PO daily for 14 days, 28-day study) is “considerable decrease”. Further, the “Systolic blood pressure, treated group vs vehicle-treated group” value in the assay on aged male Wistar rats (50 mg/kg PO daily, Day 14) was “Significant difference”.
